# “And” between values parts separate entries of the source, which are not always exact repeats. Equal values may be shown once. Read-outs that look alike come from different tables or passages of the source.
# Experiment: Pharmacokinetics of compound 6 in rats (intragastric, intravenous)
# Assay type: in vivo, SD rats
# Details: for Vd: read-out: Vss
# Experimental: 6 SD rats, male, weight 180-200 g, intragastric or intravenous administration of compound 6 (Table 3):
# For intragastric administration, the compound was formulated into a suspension with 1% MC, and for intravenous injection the compound was formulated with DMSO: 20% PEG400 (5:95). Fasting for 12 hours before the test, free drinking water. The rats were all fed 2 hours after administration.
# Intragastric administration: 0.25, 0.5, 1.0, 2.0, 4.0, 6.0, 8.0 and 24 h after administration;
# Intravenous administration: 5 min, 0.25, 0.5, 1.0, 2.0, 4.0, 6.0, 8.0 and 24 h after administration;
# At the above set point, the venous blood was taken from the posterior venous plexus of the rat eyes, and placed in a EDTA-2K tube, centrifuged at 11000 rpm for 5 min, the plasma was separated and frozen in a −20° C. refrigerator.
# The concentration of compound 6 in rat plasma was determined by LC/MS/MS.
# Pharmacokinetic parameters after administration were calculated using the non-compartmental model of the WinNonlin 5.3 software (Pharsight, USA).
# Peak concentration Cmax and peak time Tmax are measured value;
# Drug area under the curve AUC0−t value: using trapezoidal method; AUC0−∞=AUC0−t+Ct/ke, Ct is the blood concentration at the last measurable time point, ke is the elimination rate constant;
# Elimination half-life t1/2=0.693/ke;
# Mean residence time MRT=AUMC/AUC.
# Clearance rate CL=D/AUC0−∞;
# Steady state distribution volume Vss=CL×MRT
# Absolute Bioavailability F=(AUCintragastric×Dintravenous)/(AUCintravenous×Dintragastric)×100%
# [1] = intragastric 10 mg/kg, individual rat
# [2] = intravenous 1 mg/kg, individual rat
# [3] = male, SD, rat, plasma, iv, 1 mg/kg, intravenous 1 mg/kg, individual rat
# [4] = male, SD, rat, plasma, iv, 1 mg/kg, intravenous 1 mg/kg, mean
# [5] = male, SD, rat, plasma, po, 10 mg/kg, intragastric 10 mg/kg, individual rat
# [6] = male, SD, rat, plasma, po, 10 mg/kg, intragastric 10 mg/kg, mean
compound,measurement,setting,value
"CS(=O)(CCNc1nonc1/C(=N/O)Nc1ccc(F)c(Br)c1)=NC#N (racemic) [compound 6, (±)(Z)—N-(3-bromo-4-fluorophenyl)-N′-hydroxy-4-((2-(thio-methylsulfoxidecyanoimine)ethyl)amino)-1,2,5-oxadiazole-3-carboxamidine]",AUC0-t,[1],2817 ng·h/mL and 2795 ng·h/mL
same,AUC0-∞,[1],3007 ng·h/mL and 3008 ng·h/mL
same,Cmax,[1],854 ng/mL and 659 ng/mL
same,MRT,[1],3.27 h and 3.47 h
same,Tmax,[1],1.00 h
same,t1/2,[1],1.80 h
same,AUC0-t,"intragastric 10 mg/kg, mean",2651 ng·h/mL
same,AUC0-t,[2],505 ng·h/mL and 547 ng·h/mL
same,AUC0-∞,[2],534 ng·h/mL and 555 ng·h/mL
same,CL,[2],31.2 mL/min/kg and 30 mL/min/kg
same,MRT,[2],2.03 h and 1.67 h
same,Vss,[2],3.79 L/kg and 3.02 L/kg
same,t1/2,[2],2.51 h and 1.32 h
same,AUC0-t,"intravenous 1 mg/kg, mean",533 ng·h/mL
same,CL,"intravenous 1 mg/kg, mean",30.3 mL/min/kg
same,AUC(0-inf),[3],563 ng·h/mL
same,clearance,[3],29.7 mL/min/kg
same,half-life,[3],1.71 h
same,AUC0-t,"male, SD, rat, plasma, iv, 1 mg/kg, intravenous 1 mg/kg, individual rat, read-out: AUC0-t",546 ng·h/mL
same,MRT,"male, SD, rat, plasma, iv, 1 mg/kg, intravenous 1 mg/kg, individual rat, read-out: MRT",1.91 h
same,Vd,[3],3.39 L/kg
same,AUC(0-inf),[4],551 ng·h/mL
same,clearance,[4],30.3 mL/min/kg
same,half-life,[4],1.85 h
same,AUC0-t,"male, SD, rat, plasma, iv, 1 mg/kg, intravenous 1 mg/kg, mean, read-out: AUC0-t",533 ng·h/mL
same,MRT,"male, SD, rat, plasma, iv, 1 mg/kg, intravenous 1 mg/kg, mean, read-out: MRT",1.87 h
same,Vd,[4],3.4 L/kg
same,bioavailability,"male, SD, rat, plasma, oral, intragastric 10 mg/kg vs intravenous 1 mg/kg, dose normalized, read-out: F (absolute bioavailability)",49.8%
same,AUC(0-inf),[5],2480 ng·h/mL
same,half-life,[5],1.58 h
same,AUC0-t,"male, SD, rat, plasma, po, 10 mg/kg, intragastric 10 mg/kg, individual rat, read-out: AUC0-t",2340 ng·h/mL
same,Cmax,"male, SD, rat, plasma, po, 10 mg/kg, intragastric 10 mg/kg, individual rat, read-out: Cmax",593 ng/mL
same,MRT,"male, SD, rat, plasma, po, 10 mg/kg, intragastric 10 mg/kg, individual rat, read-out: MRT",3.35 h
same,Tmax,"male, SD, rat, plasma, po, 10 mg/kg, intragastric 10 mg/kg, individual rat, read-out: Tmax",2 h
same,AUC(0-inf),[6],2830 ng·h/mL
same,half-life,[6],1.73 h
same,AUC0-t,"male, SD, rat, plasma, po, 10 mg/kg, intragastric 10 mg/kg, mean, read-out: AUC0-t",2650 ng·h/mL
same,Cmax,"male, SD, rat, plasma, po, 10 mg/kg, intragastric 10 mg/kg, mean, read-out: Cmax",702 ng/mL
same,MRT,"male, SD, rat, plasma, po, 10 mg/kg, intragastric 10 mg/kg, mean, read-out: MRT",3.36 h
same,Tmax,"male, SD, rat, plasma, po, 10 mg/kg, intragastric 10 mg/kg, mean, read-out: Tmax",1.33 h

# From patent publication US11053207B2, “Indoleamine-2,3-dioxygenase inhibitor and preparation method therefor” (SHANGHAI INSTITUTE OF ORGANIC CHEMISTRY, CHINESE ACADEMY OF …, priority 2014, dated 2021)
